# What was measured:
# Conditions in all cases: 10 μM, result in words
# CYP1A2 = molecular target: T1, CYP1A2 (Homo sapiens, UniProt P05177); assay: Cytochrome P450 inhibition assay (P450-Glo); format: in vitro ADME
# T1 construct: purchased Corning; host or cells: baculovirus infected insect cells (BTI-TN-5B1-4)
# T1 sequence (P05177 2-516 limits assumed): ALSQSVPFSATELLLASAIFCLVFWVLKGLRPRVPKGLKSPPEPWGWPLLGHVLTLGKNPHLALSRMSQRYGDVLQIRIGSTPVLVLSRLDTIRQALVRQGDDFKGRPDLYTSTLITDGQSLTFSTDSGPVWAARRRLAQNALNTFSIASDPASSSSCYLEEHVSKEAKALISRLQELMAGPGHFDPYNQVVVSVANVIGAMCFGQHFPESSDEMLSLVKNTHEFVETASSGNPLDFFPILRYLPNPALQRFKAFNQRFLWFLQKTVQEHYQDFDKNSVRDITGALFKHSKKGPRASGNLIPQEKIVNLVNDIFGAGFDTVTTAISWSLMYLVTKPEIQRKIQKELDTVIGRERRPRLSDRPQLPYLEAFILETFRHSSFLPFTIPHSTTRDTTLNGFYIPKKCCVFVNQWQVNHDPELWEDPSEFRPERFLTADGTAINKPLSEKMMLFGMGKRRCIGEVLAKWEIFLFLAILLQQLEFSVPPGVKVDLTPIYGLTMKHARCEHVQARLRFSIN
# Experimental: (§1) Cytotoxicity was also determined against 786-O and A549 cells.
# (§2) Experiments for determining pre-clinical in vitro ADME-Tox activities were performed as described by Moraes et al. and also described in the following sections 4.3.2.1 to 4.3.2.4.
# (§3) The luminescence based P450-Glo™ (Promega Corp.) assay was used in 384-well assay format.
# (§4) The cytochrome P450 (CYP) panel included microsomal preparations of cytochromes P450 1A2, 2C9, 2C19, 2D6, and 3A4 (Corning) from baculovirus infected insect cells (BTI-TN-5B1−4) which express cytochromes P450 and cytochrome c reductase (and cytochrome b5 for 3A4). Compounds were added (100 nL/well in 1% DMSO v/v) using the Echo 550® Liquid Handler followed by addition of 5 μL/well of CYP450/substrate mixture. Following incubation for 30 min at 37 °C, the reaction was initiated by the addition of 5 μL/well of the NADPH regeneration mixture. By the end of a further 30 min incubation (37 °C), the CYP450 reaction was stopped and the luciferase reaction was initiated by the addition of 10 μL/well of the luciferin detection reagent, followed by an additional 30 min of incubation at 37 °C. The luminescence signal was detected using an Infinite® M1000 PRO plate reader. […] The raw data were normalised relative to the positive and negative controls yielding the % inhibition for each compound.
# CYP2C9 = molecular target: T2, CYP2C9 (Homo sapiens, UniProt P11712); assay: Cytochrome P450 inhibition assay (P450-Glo); format: in vitro ADME
# T2 construct: purchased Corning; host or cells: baculovirus infected insect cells (BTI-TN-5B1-4)
# Experimental: as §1, §2, §3, §4
# CYP2C19 = molecular target: T3, CYP2C19 (Homo sapiens, UniProt P33261); assay: Cytochrome P450 inhibition assay (P450-Glo); format: in vitro ADME
# T3 construct: purchased Corning; host or cells: baculovirus infected insect cells (BTI-TN-5B1-4)
# Experimental: as §1, §2, §3, §4
# HDAC3 = molecular target: T4, HDAC3 (Homo sapiens, UniProt O15379); assay: Histone deacetylase assay (HDAC-Glo I/II); format: biochemical
# T4 construct: purchased BPS Bioscience (San Diego, USA)
# Experimental: as §1, §2
# (§5) Inhibition of histone deacetylase (HDAC) enzymes was determined using the bioluminogenic HDAC-Glo™ I/II assay (Promega Corp.) in 384-well assay format. Human recombinant HDAC enzymes were purchased from BPS Bioscience (San Diego, USA) and the standard inhibitor trichostatin A (Sigma-Aldrich) was dissolved to a yield stock solution in 100% v/v DMSO (stored at −20 °C). Plate handling was performed using a Cell Explorer HTS platform equipped with an Echo 550® Liquid Handler and Multidrop liquid handling system with luminescence measurements taken using an EnVision® multilabel 2103 reader. Compounds were added to plates (100 nL/well; 1% v/v DMSO) and the HDAC-Glo™ I/II assay reagent was prepared by (i) rehydration of lyophilised HDAC-Glo™ I/II substrate (with an acetylated peptide concentration of 100 μM) in 10 mL HDAC-Glo™ I/II assay buffer and (ii) addition of 10 μL of developer reagent (containing trypsin). The microtiter plates were mixed briefly by orbital shaking (500–700 rpm) and luminescence was measured at steady-state signal:background which was achieved after 20 min. The raw data were normalised relative to the positive and negative controls yielding the % inhibition for each compound.
# HDAC6 = molecular target: T5, HDAC6 (Homo sapiens, UniProt Q9UBN7); assay: Histone deacetylase assay (HDAC-Glo I/II); format: biochemical
# T5 construct: purchased BPS Bioscience (San Diego, USA)
# T5 sequence (Q9UBN7 1-1215): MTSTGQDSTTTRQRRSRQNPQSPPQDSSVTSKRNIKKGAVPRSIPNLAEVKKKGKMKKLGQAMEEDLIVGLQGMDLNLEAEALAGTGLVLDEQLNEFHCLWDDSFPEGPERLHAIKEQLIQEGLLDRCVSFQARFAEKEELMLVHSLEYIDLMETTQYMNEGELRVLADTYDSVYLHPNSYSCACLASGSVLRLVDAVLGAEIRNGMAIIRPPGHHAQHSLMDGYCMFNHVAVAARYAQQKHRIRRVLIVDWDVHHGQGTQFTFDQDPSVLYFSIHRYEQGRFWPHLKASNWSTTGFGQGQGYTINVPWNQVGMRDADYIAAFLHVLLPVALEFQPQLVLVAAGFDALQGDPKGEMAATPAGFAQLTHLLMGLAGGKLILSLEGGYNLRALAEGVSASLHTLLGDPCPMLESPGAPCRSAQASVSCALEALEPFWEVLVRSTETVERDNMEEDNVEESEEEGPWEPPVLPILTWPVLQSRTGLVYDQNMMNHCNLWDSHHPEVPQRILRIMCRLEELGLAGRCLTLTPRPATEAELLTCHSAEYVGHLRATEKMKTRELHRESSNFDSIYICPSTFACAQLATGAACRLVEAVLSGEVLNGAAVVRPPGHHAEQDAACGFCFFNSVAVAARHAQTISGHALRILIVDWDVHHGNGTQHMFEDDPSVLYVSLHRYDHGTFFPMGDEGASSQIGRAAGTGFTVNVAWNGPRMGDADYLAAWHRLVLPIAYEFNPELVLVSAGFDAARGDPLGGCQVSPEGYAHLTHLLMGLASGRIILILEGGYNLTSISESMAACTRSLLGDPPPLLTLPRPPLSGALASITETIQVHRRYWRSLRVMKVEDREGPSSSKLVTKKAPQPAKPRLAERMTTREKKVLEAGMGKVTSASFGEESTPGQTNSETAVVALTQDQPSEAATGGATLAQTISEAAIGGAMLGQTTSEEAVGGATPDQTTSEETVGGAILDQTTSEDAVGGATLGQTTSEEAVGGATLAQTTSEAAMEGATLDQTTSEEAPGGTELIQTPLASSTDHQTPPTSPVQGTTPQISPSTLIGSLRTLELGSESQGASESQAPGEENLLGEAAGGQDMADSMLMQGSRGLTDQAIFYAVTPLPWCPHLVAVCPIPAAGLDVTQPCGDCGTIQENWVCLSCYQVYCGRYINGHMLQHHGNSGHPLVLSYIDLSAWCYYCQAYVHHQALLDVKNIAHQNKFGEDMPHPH
# Experimental: as §1, §2, §5
# T3 sequence (P33261 whole entry): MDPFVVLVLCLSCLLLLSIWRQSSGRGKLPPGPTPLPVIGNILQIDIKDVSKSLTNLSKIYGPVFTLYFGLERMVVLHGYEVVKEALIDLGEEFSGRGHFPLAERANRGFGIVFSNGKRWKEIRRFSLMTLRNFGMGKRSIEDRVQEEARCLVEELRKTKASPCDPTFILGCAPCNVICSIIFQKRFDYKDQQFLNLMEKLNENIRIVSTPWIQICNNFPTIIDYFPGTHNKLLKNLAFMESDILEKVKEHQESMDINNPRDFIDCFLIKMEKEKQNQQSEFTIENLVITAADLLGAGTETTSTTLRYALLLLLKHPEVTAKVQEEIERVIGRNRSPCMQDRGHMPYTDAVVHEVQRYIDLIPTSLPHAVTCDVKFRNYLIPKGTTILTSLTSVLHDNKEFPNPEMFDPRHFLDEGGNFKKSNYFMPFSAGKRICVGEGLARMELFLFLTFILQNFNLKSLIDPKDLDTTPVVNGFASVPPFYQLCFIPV
# T4 sequence (O15379 whole entry): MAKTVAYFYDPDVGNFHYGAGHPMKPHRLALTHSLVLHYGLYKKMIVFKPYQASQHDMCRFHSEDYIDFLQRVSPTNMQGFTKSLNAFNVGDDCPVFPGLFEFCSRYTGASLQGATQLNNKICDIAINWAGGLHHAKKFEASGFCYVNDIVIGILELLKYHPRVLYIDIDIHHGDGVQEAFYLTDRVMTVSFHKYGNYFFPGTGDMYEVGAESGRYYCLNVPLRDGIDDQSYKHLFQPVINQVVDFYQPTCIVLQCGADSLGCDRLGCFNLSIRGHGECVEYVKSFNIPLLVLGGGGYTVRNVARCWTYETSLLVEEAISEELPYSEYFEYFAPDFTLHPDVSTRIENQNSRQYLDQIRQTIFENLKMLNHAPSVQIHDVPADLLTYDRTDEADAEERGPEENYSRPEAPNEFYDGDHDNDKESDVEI
# T4 sequence (Q9Y618 395-489 partner limits assumed): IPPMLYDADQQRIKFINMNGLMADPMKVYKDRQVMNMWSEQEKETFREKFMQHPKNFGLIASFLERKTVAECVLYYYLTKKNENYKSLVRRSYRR
# T2 sequence (P11712 whole entry): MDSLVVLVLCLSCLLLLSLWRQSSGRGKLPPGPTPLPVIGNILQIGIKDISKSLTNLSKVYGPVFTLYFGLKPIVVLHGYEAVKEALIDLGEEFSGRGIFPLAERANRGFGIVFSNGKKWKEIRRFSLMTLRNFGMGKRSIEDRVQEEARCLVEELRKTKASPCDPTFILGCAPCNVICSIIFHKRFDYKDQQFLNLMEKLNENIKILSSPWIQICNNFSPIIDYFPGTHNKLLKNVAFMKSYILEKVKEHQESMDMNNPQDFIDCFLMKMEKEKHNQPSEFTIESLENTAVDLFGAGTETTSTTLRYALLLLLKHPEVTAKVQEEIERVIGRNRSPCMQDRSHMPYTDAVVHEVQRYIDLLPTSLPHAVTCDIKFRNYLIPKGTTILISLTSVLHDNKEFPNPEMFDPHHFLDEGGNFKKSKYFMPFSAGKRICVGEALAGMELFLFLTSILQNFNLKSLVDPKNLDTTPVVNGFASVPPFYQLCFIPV
smiles,measurement,setting,value
"COc1ccccc1-c1cc(-c2cccnc2)nc(N)n1 [Compound 13, 4-(2-Methoxyphenyl)-6-(pyridin-3-yl)pyrimidin-2-amine]",CYP1A2 inhibition,CYP1A2,inhibitory activity
same,CYP2C9 inhibition,CYP2C9,some inhibition
same,CYP2C19 inhibition,CYP2C19,some inhibition
same,HDAC3 inhibition,HDAC3,No inhibition
same,HDAC6 inhibition,HDAC6,No inhibition

# Source: paper PMC7762786, “The discovery of novel antitrypanosomal 4-phenyl-6-(pyridin-3-yl)pyrimidines” (European Journal of Medicinal Chemistry, 2021)
